Data on 19 compounds can be found in patent US10927141B2 (priority 2018, dated 2021).

Data set [1] is classed as physicochemical. The following applies: 1 w. The protocol:
For each salt, approximately 5 mg compound was added into an 8 mL glass vial with a multi-hole aluminum foil cap, and kept at 60° C., 40° C./75% RH for 1 week. […] Appearance by visual observation were recorded followed by purity assessment and XPRD data collection on the residual solids.

The format of data set [2] is physicochemical.

Like-named read-outs stand apart in the source and are kept apart here.

Turning to `COC[C@@]1(O)CC[C@@]2(C)[C@@H](CC[C@@H]3[C@@H]2CC[C@]2(C)[C@@H](C(=O)Cn4ccnc4)CC[C@@H]32)C1.O=C1O[C@H]([C@@H](O)CO)C(O)=C1O` [Ascorbate (Form A)], the Final purity in data set [1] (40° C./75% RH) was determined as 96.4; in data set [1] (60° C.), 95.7; in data set [2] (1.2 million lux-hrs), 96.8; in data set [2] (Dark control) it was 96.8. Moreover, the XRPD patterns result in data set [1] (40° C./75% RH), in data set [1] (60° C.), in data set [2] (1.2 million lux-hrs) and in data set [2] (Dark control) was “Form A” each time.

As for `COCC1(O)CCC2(C)C(CCC3C2CCC2(C)C(C(=O)Cn4ccnc4)CCC32)C1.O=C(O)c1ccc2ccccc2c1O` (centres unmarked) [1-hydroxy-2-napthoate (Form A)], the Final purity in data set [1] (40° C./75% RH) is recorded as 92.64; in data set [1] (60° C.) it was 88.91; in data set [2] (1.2 million lux-hrs), 92.64; in data set [2] (Dark control), 91.96. In addition, the XRPD patterns result in data set [1] (40° C./75% RH), in data set [1] (60° C.), in data set [2] (1.2 million lux-hrs) and in data set [2] (Dark control) was “Form A” each time.

For the compound `COC[C@@]1(O)CC[C@@]2(C)[C@@H](CC[C@@H]3[C@@H]2CC[C@]2(C)[C@@H](C(=O)Cn4ccnc4)CC[C@@H]32)C1.O=P(O)(O)O` [Phosphate (Form A)], the Final purity in data set [1] (40° C./75% RH) turned out to be 99.2; in data set [1] (60° C.) it was 99.2; in data set [2] (1.2 million lux-hrs), 98.9; in data set [2] (Dark control), 99.2. The XRPD patterns entry in data set [1] (40° C./75% RH), in data set [1] (60° C.), in data set [2] (1.2 million lux-hrs) and in data set [2] (Dark control) was “Form A” in each case.

For `COCC1(O)CCC2(C)C(CCC3C2CCC2(C)C(C(=O)Cn4ccnc4)CCC32)C1.O=S(=O)(O)CCO` (centres unmarked) [Isethionate (Form A)], the Final purity stood at 98.5 in data set [1] (40° C./75% RH), 98.7 in data set [1] (60° C.), 98.9 in data set [2] (1.2 million lux-hrs) and 98.8 in data set [2] (Dark control). Besides, the XRPD patterns result in data set [1] (40° C./75% RH), in data set [1] (60° C.), in data set [2] (1.2 million lux-hrs) and in data set [2] (Dark control) was “Form A” throughout.

For the compound `COCC1(O)CCC2(C)C(CCC3C2CCC2(C)C(C(=O)Cn4ccnc4)CCC32)C1.Cl` (centres unmarked) [Hydrochloride (Form B)], the Final purity is given as 100.0 in data set [1] (40° C./75% RH), 100.0 in data set [1] (60° C.), 98.2 in data set [2] (1.2 million lux-hrs) and 98.59 in data set [2] (Dark control). Besides, the XRPD patterns entry in data set [1] (60° C.), in data set [2] (1.2 million lux-hrs) and in data set [2] (Dark control) was “Form B” each time.

As to `COCC1(O)CCC2(C)C(CCC3C2CCC2(C)C(C(=O)Cn4ccnc4)CCC32)C1.O=C(O)C(O)C(O)C(=O)O` (stereo not drawn) [L(+)-Tartrate (Form A)], the Final purity is listed as 99.3 in data set [1] (40° C./75% RH), 99.3 in data set [1] (60° C.), 99.4 in data set [2] (1.2 million lux-hrs) and 99.2 in data set [2] (Dark control). Also, the XRPD patterns result in data set [1] (40° C./75% RH), in data set [1] (60° C.), in data set [2] (1.2 million lux-hrs) and in data set [2] (Dark control) was “Form A” throughout.

On to `COCC1(O)CCC2(C)C(CCC3C2CCC2(C)C(C(=O)Cn4ccnc4)CCC32)C1.Cc1ccc(S(=O)(=O)O)cc1` (centres unmarked) [Tosylate (Form A)], for which the Final purity in data set [1] (40° C./75% RH) turned out to be 99.5; in data set [1] (60° C.), 99.5; in data set [2] (1.2 million lux-hrs), 99.0; in data set [2] (Dark control), 99.5. For the same compound, the XRPD patterns result in data set [1] (60° C.), in data set [2] (1.2 million lux-hrs) and in data set [2] (Dark control) was “Form A” throughout.

Take `COC[C@@]1(O)CC[C@@]2(C)[C@@H](CC[C@@H]3[C@@H]2CC[C@]2(C)[C@@H](C(=O)Cn4ccnc4)CC[C@@H]32)C1.Cl` [Hydrochloride (Form A)]: the Final purity in data set [1] (40° C./75% RH) is 99.4; in data set [1] (60° C.), 99.5; in data set [2] (1.2 million lux-hrs), 99.5; in data set [2] (Dark control) it was 99.5. Besides, the XRPD patterns entry in data set [1] (40° C./75% RH), in data set [1] (60° C.), in data set [2] (1.2 million lux-hrs) and in data set [2] (Dark control) was “Form A” in each case.

For the compound `COCC1(O)CCC2(C)C(CCC3C2CCC2(C)C(C(=O)Cn4ccnc4)CCC32)C1.O=C(O)CC(O)C(=O)O` [L-Malate (Form A)], the Final purity in data set [1] (40° C./75% RH) is recorded as 99.2; in data set [1] (60° C.), 99.6; in data set [2] (1.2 million lux-hrs) it was 99.3; in data set [2] (Dark control), 99.3. The XRPD patterns result in data set [1] (40° C./75% RH), in data set [1] (60° C.), in data set [2] (1.2 million lux-hrs) and in data set [2] (Dark control) was “Form A” in each case.

Regarding `COC[C@@]1(O)CC[C@@]2(C)[C@@H](CC[C@@H]3[C@@H]2CC[C@]2(C)[C@@H](C(=O)Cn4ccnc4)CC[C@@H]32)C1.O=S(=O)(O)c1ccccc1` [Besylate (Form A)], the Final purity came out at 98.3 in data set [1] (40° C./75% RH), 98.3 in data set [1] (60° C.), 98.7 in data set [2] (1.2 million lux-hrs) and 98.4 in data set [2] (Dark control). Further, the XRPD patterns result in data set [1] (40° C./75% RH), in data set [1] (60° C.), in data set [2] (1.2 million lux-hrs) and in data set [2] (Dark control) was “Form A” in each case.

As for `COC[C@@]1(O)CC[C@@]2(C)[C@@H](CC[C@@H]3[C@@H]2CC[C@]2(C)[C@@H](C(=O)Cn4ccnc4)CC[C@@H]32)C1.O=C(O)C[C@H](O)C(=O)O` [L-Malate (Form B)], the Final purity in data set [1] (40° C./75% RH) was 98.5; in data set [1] (60° C.), 97.8; in data set [2] (1.2 million lux-hrs), 97.6; in data set [2] (Dark control) it was 97.5. Further, the XRPD patterns result in data set [1] (60° C.), in data set [2] (1.2 million lux-hrs) and in data set [2] (Dark control) was “Form B” throughout.

Consider `COCC1(O)CCC2(C)C(CCC3C2CCC2(C)C(C(=O)Cn4ccnc4)CCC32)C1.O=C(O)C(Cl)Cl` (centres unmarked) [Dichloroacetate (Form A)], for which the Final purity stood at 98.0 in data set [1] (40° C./75% RH), 96.3 in data set [1] (60° C.), 96.4 in data set [2] (1.2 million lux-hrs) and 97.3 in data set [2] (Dark control). Besides, the XRPD patterns result in data set [1] (40° C./75% RH), in data set [1] (60° C.), in data set [2] (1.2 million lux-hrs) and in data set [2] (Dark control) was “Form A” each time.

For `COC[C@@]1(O)CC[C@@]2(C)[C@@H](CC[C@@H]3[C@@H]2CC[C@]2(C)[C@@H](C(=O)Cn4ccnc4)CC[C@@H]32)C1.O=C(O)C(=O)O` [Oxalate (Form A)], the Final purity was determined as 98.4 in data set [1] (40° C./75% RH), 98.3 in data set [1] (60° C.), 98.2 in data set [2] (1.2 million lux-hrs) and 98.9 in data set [2] (Dark control). Also, the XRPD patterns result in data set [1] (40° C./75% RH), in data set [1] (60° C.), in data set [2] (1.2 million lux-hrs) and in data set [2] (Dark control) was “Form A” each time.

For the compound `COC[C@@]1(O)CC[C@@]2(C)[C@@H](CC[C@@H]3[C@@H]2CC[C@]2(C)[C@@H](C(=O)Cn4ccnc4)CC[C@@H]32)C1.O=C(O)C(O)C(O)C(=O)O` [L(+)-Tartrate (Form B)], the Final purity in data set [1] (40° C./75% RH) turned out to be 99.2; in data set [1] (60° C.), 99.2; in data set [2] (1.2 million lux-hrs) it was 99.3; in data set [2] (Dark control), 99.2. Moreover, the XRPD patterns entry in data set [1] (40° C./75% RH), in data set [1] (60° C.), in data set [2] (1.2 million lux-hrs) and in data set [2] (Dark control) was “Form B” in each case.

Regarding `COCC1(O)CCC2(C)C(CCC3C2CCC2(C)C(C(=O)Cn4ccnc4)CCC32)C1.O=CC(O)C(O)C(O)C(O)C(=O)O` (centres unmarked) [Glucuronate (Form A)], the Final purity in data set [1] (40° C./75% RH) was 98.0; in data set [1] (60° C.) it was 96.7; in data set [2] (1.2 million lux-hrs), 97.5; in data set [2] (Dark control) it was 97.5. Moreover, the XRPD patterns entry in data set [1] (40° C./75% RH), in data set [1] (60° C.), in data set [2] (1.2 million lux-hrs) and in data set [2] (Dark control) was “Form A” each time.

For the compound `COCC1(O)CCC2(C)C(CCC3C2CCC2(C)C(C(=O)Cn4ccnc4)CCC32)C1.Cl` (centres unmarked) [Hydrochloride (Form C)], the Final purity in data set [1] (40° C./75% RH) was found to be 100.0; in data set [1] (60° C.) it was 98.6; in data set [2] (1.2 million lux-hrs) it was 100.0; in data set [2] (Dark control) it was 99.2. Also, the XRPD patterns result in data set [1] (40° C./75% RH), in data set [1] (60° C.), in data set [2] (1.2 million lux-hrs) and in data set [2] (Dark control) was “Form C” throughout.

In the case of `COCC1(O)CCC2(C)C(CCC3C2CCC2(C)C(C(=O)Cn4ccnc4)CCC32)C1.CS(=O)(=O)O` (centres unmarked) [Mesylate (Form A)], the Final purity in data set [1] (40° C./75% RH) came to 99.4; in data set [1] (60° C.) it was 99.4; in data set [2] (1.2 million lux-hrs), 99.3; in data set [2] (Dark control), 99.4. Further, the XRPD patterns entry in data set [1] (40° C./75% RH) is on record as “Form D”; in data set [1] (60° C.) it was “Form A”; in data set [2] (1.2 million lux-hrs), “Form A”; in data set [2] (Dark control), “Form A”.

With `COC[C@@]1(O)CC[C@@]2(C)[C@@H](CC[C@@H]3[C@@H]2CC[C@]2(C)[C@@H](C(=O)Cn4ccnc4)CC[C@@H]32)C1.O=C(O)CC(=O)O` [Malonate (Form A)], the Final purity in data set [1] (40° C./75% RH) was 98.5; in data set [1] (60° C.) it was 97.0; in data set [2] (1.2 million lux-hrs), 98.2; in data set [2] (Dark control), 99.0. Further, the XRPD patterns entry in data set [1] (40° C./75% RH), in data set [1] (60° C.), in data set [2] (1.2 million lux-hrs) and in data set [2] (Dark control) was “Form A” throughout.

In the case of `COCC1(O)CCC2(C)C(CCC3C2CCC2(C)C(C(=O)Cn4ccnc4)CCC32)C1.O=C(O)c1cc(O)ccc1O` (centres unmarked) [Gentisate salt (Form A)], the Final purity in data set [1] (40° C./75% RH) came out at 97.6; in data set [1] (60° C.), 97.0; in data set [2] (1.2 million lux-hrs) it was 96.0; in data set [2] (Dark control) it was 97.6. In addition, the XRPD patterns result in data set [1] (40° C./75% RH), in data set [1] (60° C.), in data set [2] (1.2 million lux-hrs) and in data set [2] (Dark control) was “Form A” in each case.
